Measured values published in patent publication US20080070939A1, “LOCAL […] COMPOSITIONS CONTAINING DEXTROROTATORY MORPHINAN DERIVATIVES OR PHARMACEUTICALLY ACCEPTABLE SALTS THEREOF” (CHI MEI FOUNDATION HOSPITAL, priority 2006, published 2008).
Counter-ions that a name gives are not always drawn. Like-named read-outs stand apart in the source and are kept apart here.

Test system: sciatic nerve
Test: Sciatic nerve blockade after injection at the sciatic nerve notch in rats
Format: in vivo
Design: AUC of time-% PE curve, sciatic nerve blockade of motor function / AUC of time-% PE curve, sciatic nerve blockade of proprioception / AUC of time-% PE curve, sciatic nerve blockade of nociceptive reaction: unit not given beside the values
Conditions: for ED50: Rattus norvegicus
Method: Male Sprague-Dawley rats (weighing about 300 to 350 g); for each dose of each drug, n=6.
In brief, the rats were slightly anesthetized by inhalation of a low concentration of sevoflurane. Then, 200 μL of tested drugs were injected at the sciatic nerve notch at the left hind limb of the rat using a 27-gauge needle connected to a tuberculin syringe (Becton Dickinson, USA, model BND309623-BX). Thereafter, development of sciatic nerve blockade was observed from the paralysis of the left hind limb of the rat. The right hind limb served as a control during the subsequent functional assay
For proprioception, the front half of the rat body and the right hind limb were off the ground at the same time so that the rat was standing on the left hind limb during the measurement.
The differences resided in that: The sciatic nerve notch injections of ED25, ED50 and ED75 were conducted based on the method described in the preceding section “A. Drug injection” of this example. Evaluations of motor function, proprioception and nociceptive reaction were conducted based on the method described in section “B. Neurobehavioral evaluations” of this example.
The differences resided in that: Before the statistical analysis, Shapiro-Wilk test was used to evaluate whether the data were, theoretically, normally distributed.

[1] = dosage of 6.7 mg/kg, sciatic nerve notch injection, rats
[2] = rats, 2ED50 when administered independently, ED50 of each drug when co-administered, mean ± SEM

With `COc1ccc2c(c1)[C@]13CCCC[C@@H]1[C@H](C2)N(C)CC3` [Dextromethorphan hydrobromide monohydrate] the “sciatic nerve blocking effect on nociceptive reaction compared with motor function” value (ED50 basis, p<0.01, rats) was “more potent sciatic nerve blocking effect on nociceptive reaction than on motor function”, the ED50 (read-out: Mean ED50) was 3.72 mg/kg and the ED50 (read-out: Motor function ED50 (95% CI)) was 3.95 mg/kg. For the same compound, the ED50 (read-out: Nociceptive reaction ED50 (95% CI)) was 3.49 mg/kg, the ED50 (read-out: Proprioception ED50 (95% CI)) was 3.73 mg/kg and the “% MPE of sciatic nerve blockade of motor function” value [1] was “about 71±7 % MPE”. For the same compound, the “% MPE of sciatic nerve blockade of nociceptive reaction” value [1] was ~83±11 % MPE, the “% MPE of sciatic nerve blockade of proprioception” value [1] was ~78±7 % MPE and the “duration of sciatic nerve blockade of motor function” value [1] was “about 77±10 minutes”. For the same compound, the “duration of sciatic nerve blockade of nociceptive reaction” value [1] was ~85 ± 11 min, the “duration of sciatic nerve blockade of proprioception” value [1] was ~78 ± 8 min and the “effect of co-administration with lidocaine hydrochloride on sciatic nerve blockades” value (rats, ED50 of each drug) was “additive effect”. For the same compound, the “AUC of time-% PE curve, sciatic nerve blockade of motor function” value [2] was 4056 ± 212, the “AUC of time-% PE curve, sciatic nerve blockade of nociceptive reaction” value [2] was 6295 ± 643 and the “AUC of time-% PE curve, sciatic nerve blockade of proprioception” value [2] was 5498 ± 507. For the same compound, the “duration of sciatic nerve blockade compared with lidocaine hydrochloride” value (same effective doses (ED25, ED50 or ED75), rats) was “longer reaction duration”.
